Source: the supplement of paper PMC13380429

Experiments:
Settings in all cases: 72 h
Calu-3 [1] = test: cell viability relative to DMSO; higher = less toxic
Caco-2 [2] = test: as above
U2OS [3] = test: as above
HepG2 [4] = test: as above
Calu-3 [5] = test: drug sensitivity score (DSS) for viability; higher = more toxic; extreme values may be limits of the assay
Caco-2 [6] = test: as above
U2OS [7] = test: as above
HepG2 [8] = test: as above
Calu-3 [9] = test: relative viability EC50 (midpoint between 100% and the lowest measured viability); higher = less toxic
Caco-2 [10] = test: as above
U2OS [11] = test: as above
HepG2 [12] = test: as above
Vero E6 [13] = test: cell viability relative to DMSO; higher = less toxic
Vero E6 [14] = test: drug sensitivity score (DSS) for viability; higher = more toxic; extreme values may be limits of the assay

SMILES | cell viability (Calu-3 [1]; 1 nM) [%] | cell viability (Calu-3 [1]; 10 nM) [%] | cell viability (Calu-3 [1]; 100 nM) [%] | cell viability (Calu-3 [1]; 1000 nM) [%] | cell viability (Calu-3 [1]; 10000 nM) [%] | cell viability (Caco-2 [2]; 1 nM) [%] | cell viability (Caco-2 [2]; 10 nM) [%] | cell viability (Caco-2 [2]; 100 nM) [%] | cell viability (Caco-2 [2]; 1000 nM) [%] | cell viability (Caco-2 [2]; 10000 nM) [%] | cell viability (U2OS [3]; 1 nM) [%] | cell viability (U2OS [3]; 10 nM) [%] | cell viability (U2OS [3]; 100 nM) [%] | cell viability (U2OS [3]; 1000 nM) [%] | cell viability (U2OS [3]; 10000 nM) [%] | cell viability (HepG2 [4]; 1 nM) [%] | cell viability (HepG2 [4]; 10 nM) [%] | cell viability (HepG2 [4]; 100 nM) [%] | cell viability (HepG2 [4]; 1000 nM) [%] | cell viability (HepG2 [4]; 10000 nM) [%] | drug sensitivity score (Calu-3 [5]) | drug sensitivity score (Caco-2 [6]) | drug sensitivity score (U2OS [7]) | drug sensitivity score (HepG2 [8]) | relative viability EC50 (Calu-3 [9]) [µM] | relative viability EC50 (Caco-2 [10]) [µM] | relative viability EC50 (U2OS [11]) [µM] | relative viability EC50 (HepG2 [12]) [µM] | cell viability (Vero E6 [13]; 1 nM) [%] | cell viability (Vero E6 [13]; 10 nM) [%] | cell viability (Vero E6 [13]; 100 nM) [%] | cell viability (Vero E6 [13]; 1000 nM) [%] | cell viability (Vero E6 [13]; 10000 nM) [%] | drug sensitivity score (Vero E6 [14])
CCN1C[C@]2(OC(=O)c3ccccc3NC(C)=O)CC[C@H](OC)[C@@]34[C@@H]2C[C@@H]([C@@H]13)[C@@]1(O)C[C@H](OC)[C@H]2C[C@@H]4[C@]1(O)[C@H]2OC [lappaconite] | 103 | 86.1 | 94.1 | 102 | 106 | 87.7 | 99 | 85.5 | 95.2 | 89.8 | 103 | 103 | 98.1 | 99.1 | 94.4 | 101 | 97.1 | 103 | 100 | 107 | 0 | 0 | 0 | 0 | > 10 | > 10 | > 10 | > 10 | – | – | – | – | – | –
CO[C@H]1C[C@@H]2CC[C@@H](C)[C@@](O)(O2)C(=O)C(=O)N2CCCC[C@H]2C(=O)O[C@H]([C@H](C)C[C@@H]2CC[C@@H](O)[C@H](OC)C2)CC(=O)[C@H](C)/C=C(\C)[C@@H](O)[C@@H](OC)C(=O)[C@H](C)C[C@H](C)/C=C/C=C/C=C/1C [sirolimus] | 65.3 | 42.2 | 42.6 | 47.5 | 47.3 | 72.7 | 55.4 | 56.8 | 52 | 54.2 | 77 | 57.9 | 60.3 | 55.8 | 59.9 | 78.3 | 63.9 | 60.4 | 66.1 | 53.7 | 29 | 22.7 | 21.2 | 17.5 | < 0.001 | – | – | – | 92.3 | 69.4 | 58.6 | 55.9 | 60.6 | 17.5
CN[C@@H](C)[C@H]1[C@H](O)C[C@@]2(C)[C@@H]3CC[C@H]4C(C)(C)[C@@H](NC)CC[C@@]45C[C@@]35CC[C@]12C [cyclovirobuxin-D] | 102 | 94.7 | 98.6 | 99.2 | 102 | 101 | 92.1 | 91.2 | 90.1 | 90.6 | 101 | 96.3 | 99.4 | 99.8 | 97.6 | 96.3 | 99.5 | 91.5 | 99 | 99.1 | 0 | 0 | 0 | 0 | > 10 | > 10 | > 10 | > 10 | – | – | – | – | – | –
O=C(O)COc1ccc(/C=C2\SC(=O)NC2=O)cc1 [TCS-3035] | 101 | 97.6 | 97.3 | 103 | 106 | 105 | 107 | 97.3 | 104 | 102 | 102 | 94.9 | 97.8 | 99.8 | 100 | 103 | 104 | 103 | 105 | 95.3 | 0 | 0 | 0 | 0 | > 10 | > 10 | > 10 | > 10 | – | – | – | – | – | –
CC(=O)N[C@@H](CC(C)C)C(=O)O [acetyl-l-leucine] | – | – | – | – | – | 95.7 | 103 | 85 | 80.3 | 96.6 | 101 | 99.9 | 95.2 | 101 | 96.2 | 95.8 | 99.2 | 98.4 | 88.3 | 94.7 | – | 4.1 | 0 | 0 | – | > 10 | > 10 | > 10 | – | – | – | – | – | –
CCC(=O)NC[C@@H]1C[C@H]1c1cccc2c1CCO2 [tasimelteon] | 91.1 | 103 | 91.9 | 103 | 103 | 97.9 | 92.1 | 90.6 | 98 | 99.4 | 92.8 | 103 | 93.9 | 93.6 | 102 | 108 | 107 | 102 | 106 | 98.5 | 0 | 0 | 0 | 0 | > 10 | > 10 | > 10 | > 10 | – | – | – | – | – | –
Cn1cc(-c2ccncc2)c(-c2ccc(OCc3ccc4ccccc4n3)cc2)n1 | 104 | 105 | 103 | 98.9 | 77.1 | 91.1 | 106 | 90.5 | 106 | 67.2 | 94 | 101 | 96.7 | 94.6 | 87.5 | 105 | 99.2 | 108 | 95.6 | 91.5 | 0.9 | 1.2 | 0 | 0 | > 10 | – | > 10 | > 10 | – | – | – | – | – | –
Nc1ncnc2c1c(-c1cccc(OCc3ccccc3)c1)cn2[C@H]1C[C@@H](CN2CCC2)C1 [NVP-AEW541] | 112 | 103 | 99.4 | 93.3 | 57.2 | 99.8 | 97 | 94.5 | 80.8 | 45.1 | 98.1 | 97.9 | 106 | 86.6 | 52.5 | 96.4 | 93.6 | 92.4 | 68.1 | 32.3 | 3.3 | 5.2 | 4.5 | 7.4 | – | 1.4 | – | 1 | 100 | 102 | 99 | 92.9 | 69.6 | 2.4
CCCOc1ccc2c(c1)CC[C@@H]1[C@@H]2CC[C@]2(C)[C@@H](OC)CC[C@@H]12 [promestriene] | 99 | 90.9 | 97.5 | 92.3 | 104 | 97.9 | 97.4 | 97.7 | 90.4 | 98.5 | 93.5 | 105 | 96.2 | 96.5 | 99.9 | 102 | 107 | 103 | 93 | 97.9 | 0 | 0 | 0 | 0 | > 10 | > 10 | > 10 | > 10 | – | – | – | – | – | –
N#C/C(=C\c1ccc(O)c(O)c1)C(=O)NCCCCc1ccccc1 [AG-556] | 95.7 | 101 | 102 | 110 | 98.7 | 94 | 94.2 | 101 | 101 | 50.1 | 98.5 | 99 | 94.7 | 99 | 75.8 | 93.3 | 101 | 97.8 | 108 | 71.1 | 0 | 2.5 | 1 | 0.9 | > 10 | – | > 10 | – | 95.8 | 95.6 | 100 | 95.9 | 62.5 | 2.5
Cc1nc(N)sc1CCN [amthamine] | 98.2 | 97.3 | 105 | 109 | 109 | 96.3 | 95.3 | 87.4 | 92.4 | 96.5 | – | – | – | – | – | 104 | 105 | 106 | 122 | 99.4 | 0 | 0 | – | 0 | > 10 | > 10 | – | > 10 | – | – | – | – | – | –
COc1ccc2c(c1OC)C(=O)O[C@@H]2[C@H]1c2cc3c(cc2CCN1C)OCO3 [hydrastine-(1R,9S)] | – | – | – | – | – | – | – | – | – | – | – | – | – | – | – | – | – | – | – | – | 0 | – | 0 | 0 | – | – | – | – | – | – | – | – | – | 0
O=c1[nH]c(=O)n([C@H]2C[C@H](O)[C@@H](CO)O2)cc1C(F)(F)F [trifluridine] | 106 | 121 | 103 | 100 | 97.7 | 93.3 | 93.9 | 98.4 | 94 | 81.7 | – | – | – | – | – | 95.9 | 93.2 | 104 | 64.8 | 36.1 | 0 | 0.9 | – | 7.8 | > 10 | > 10 | – | 0.923 | 101 | 105 | 108 | 102 | 69.5 | 1.2
CN(C)CCN1C(=O)c2cccc3cc(N)cc(c23)C1=O [amonafide] | 94.8 | 96.2 | 99.3 | 104 | 65.1 | 99.9 | 96.1 | 97.9 | 108 | 69.7 | 101 | 92.7 | 95 | 100 | 64.6 | 92.9 | 108 | 113 | 93.6 | 23.9 | 1.4 | 1 | 1.7 | 5.2 | – | – | – | 2.48 | 97.8 | 93.3 | 95.9 | 94.1 | 54.8 | 3.3
C[N+]1(C)[C@@H]2C[C@@H](OC(=O)[C@H](CO)c3ccccc3)C[C@H]1[C@@H]1O[C@@H]12 [methscopolamine] | – | – | – | – | – | – | – | – | – | – | – | – | – | – | – | – | – | – | – | – | 0 | – | 0 | 0 | – | – | – | – | – | – | – | – | – | 0
Cc1ncc([N+](=O)[O-])n1CC(C)O (stereo not given) [secnidazole] | – | – | – | – | – | – | – | – | – | – | – | – | – | – | – | – | – | – | – | – | 0.4 | – | 0 | 0 | – | – | – | – | – | – | – | – | – | 0
NS(=O)(=O)c1ccc(NC(=O)Nc2ccc(F)cc2)cc1 [U-104] | 112 | 91.7 | 107 | 101 | 108 | 99.4 | 94.4 | 96.9 | 105 | 101 | – | – | – | – | – | 102 | 106 | 103 | 89.8 | 104 | 0 | 0 | – | 0 | > 10 | > 10 | – | > 10 | – | – | – | – | – | –
